Experimental data as given in patent US20130310379A1, “MODULATORS OF METHYL MODIFYING ENZYMES, COMPOSITIONS AND USES THEREOF” (CONSTELLATION PHARMACEUTICALS, priority 2010, published 2013).

Each compound was assayed against EZH2 (Homo sapiens, UniProt Q15910) (assay: EZH2 assay: rPRC2 with biotinylated oligonucleosome substrates and 3H SAM, FlashPlate scintillation counting, IC50). Details: rPRC2, biotinylated oligonucleosome substrates, 3H SAM; read-out: EZH2 IC50.
Format: biochemical
Method in brief: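 IC50 from 4-parameter fit, baselines fixed at 0 and 100%. Compounds (top 80 uM, 2-fold series to 0.16 uM) pre-incubated 20 min with 2 nM EZH2-PRC2; 60-min methylation in pH 8.5 Tris with 0.2 uM 3H SAM, 0.2 uM oligonucleosomes, 3.6 uM H3K27me3 peptide.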

Chain of EZH2 (Q15910 whole entry): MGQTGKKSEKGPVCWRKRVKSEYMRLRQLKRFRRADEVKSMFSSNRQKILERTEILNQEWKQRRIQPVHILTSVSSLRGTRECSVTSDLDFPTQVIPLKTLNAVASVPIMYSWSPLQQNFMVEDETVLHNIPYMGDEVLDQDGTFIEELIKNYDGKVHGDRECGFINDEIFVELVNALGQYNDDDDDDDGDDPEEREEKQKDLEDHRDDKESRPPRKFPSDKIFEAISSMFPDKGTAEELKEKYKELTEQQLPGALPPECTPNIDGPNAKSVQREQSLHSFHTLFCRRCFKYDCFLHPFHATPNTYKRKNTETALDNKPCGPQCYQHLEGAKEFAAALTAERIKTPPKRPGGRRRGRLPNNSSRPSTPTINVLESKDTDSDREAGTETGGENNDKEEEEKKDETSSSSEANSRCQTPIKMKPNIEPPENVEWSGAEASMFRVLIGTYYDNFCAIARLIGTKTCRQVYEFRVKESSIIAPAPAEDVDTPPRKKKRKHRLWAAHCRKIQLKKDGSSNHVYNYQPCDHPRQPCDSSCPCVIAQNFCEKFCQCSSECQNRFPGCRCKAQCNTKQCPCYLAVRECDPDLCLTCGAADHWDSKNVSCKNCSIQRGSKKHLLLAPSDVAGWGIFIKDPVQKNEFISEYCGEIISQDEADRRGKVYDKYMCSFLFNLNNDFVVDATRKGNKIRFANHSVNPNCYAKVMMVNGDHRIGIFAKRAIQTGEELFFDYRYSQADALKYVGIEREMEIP
Chain of EZH2 (O75530 whole entry partner): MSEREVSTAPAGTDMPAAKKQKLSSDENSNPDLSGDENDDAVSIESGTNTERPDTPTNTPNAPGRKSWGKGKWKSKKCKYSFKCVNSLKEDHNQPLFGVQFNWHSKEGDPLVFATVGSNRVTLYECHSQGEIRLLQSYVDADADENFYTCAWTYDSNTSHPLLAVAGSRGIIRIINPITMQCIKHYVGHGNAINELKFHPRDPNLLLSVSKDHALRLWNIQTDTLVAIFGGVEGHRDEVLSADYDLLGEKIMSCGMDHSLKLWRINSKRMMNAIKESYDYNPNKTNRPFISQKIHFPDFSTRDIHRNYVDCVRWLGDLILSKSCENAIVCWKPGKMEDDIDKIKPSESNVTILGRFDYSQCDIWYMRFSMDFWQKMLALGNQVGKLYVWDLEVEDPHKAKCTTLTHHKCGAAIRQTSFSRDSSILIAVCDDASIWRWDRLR
Chain of EZH2 (Q15022 whole entry partner): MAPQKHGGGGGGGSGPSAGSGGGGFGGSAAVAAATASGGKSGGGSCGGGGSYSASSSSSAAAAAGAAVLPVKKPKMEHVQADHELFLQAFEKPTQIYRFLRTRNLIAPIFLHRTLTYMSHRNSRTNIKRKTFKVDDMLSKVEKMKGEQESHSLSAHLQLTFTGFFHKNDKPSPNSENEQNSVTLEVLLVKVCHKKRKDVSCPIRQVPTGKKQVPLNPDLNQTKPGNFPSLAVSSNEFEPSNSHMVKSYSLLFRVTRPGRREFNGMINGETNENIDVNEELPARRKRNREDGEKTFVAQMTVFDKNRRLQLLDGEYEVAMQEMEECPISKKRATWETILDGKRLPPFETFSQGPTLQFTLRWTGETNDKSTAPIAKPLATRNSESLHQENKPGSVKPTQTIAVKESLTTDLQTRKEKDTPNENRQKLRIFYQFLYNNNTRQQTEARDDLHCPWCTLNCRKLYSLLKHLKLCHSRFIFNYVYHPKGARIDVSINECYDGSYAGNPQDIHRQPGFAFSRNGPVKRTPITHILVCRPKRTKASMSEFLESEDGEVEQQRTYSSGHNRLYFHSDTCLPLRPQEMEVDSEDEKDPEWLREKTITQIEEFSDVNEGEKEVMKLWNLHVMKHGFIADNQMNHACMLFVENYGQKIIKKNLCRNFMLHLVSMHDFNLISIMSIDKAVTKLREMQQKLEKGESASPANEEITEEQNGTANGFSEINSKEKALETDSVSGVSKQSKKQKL

Structure (SMILES) | IC50
CC1(C)CC(NC(=O)c2ccc(Oc3ccccc3)cc2F)CC(C)(C)N1 [Compound I-203] | > 80 µM
CC1(C)CC(NC(=O)c2ccc(Oc3ccccc3C#N)cn2)CC(C)(C)N1 [Compound I-205] | 5 to 20 µM
CC1(C)CC(NC(=O)c2ccc(Oc3ccccc3-c3ccccc3)c(Cl)c2)CC(C)(C)N1 [Compound I-206] | < 5 µM
CC(Oc1ccccc1Oc1ccc(C(=O)NC2CC(C)(C)NC(C)(C)C2)cc1)c1ccccc1 (stereo not drawn) [Compound I-208] | 5 to 20 µM
CC1(C)CC(NC(=O)c2ccc(Oc3ccccc3C#N)c(-c3cccnc3)c2)CC(C)(C)N1 [Compound I-211] | < 5 µM
CC1(C)CC(NC(=O)c2ccc(Oc3ccccc3C#N)c(-c3ccsc3)c2)CC(C)(C)N1 [Compound I-212] | < 5 µM
CC1(C)CC(NC(=O)c2ccc(Oc3ccccc3C#N)c(-c3cn[nH]c3)c2)CC(C)(C)N1 [Compound I-213] | < 5 µM
Cc1noc(C)c1-c1cc(C(=O)NC2CC(C)(C)NC(C)(C)C2)ccc1Oc1ccccc1C#N [Compound I-214] | 20 to 80 µM
CC1(C)CC(NC(=O)c2ccc(COc3ccccc3)c(Br)c2)CC(C)(C)N1 [Compound I-215] | 20 to 80 µM
CC1(C)CC(NC(=O)c2ccc(Oc3ccccc3C#N)c(C(F)(F)F)c2)CC(C)(C)N1 [Compound I-218] | < 5 µM
CC1(C)CC(NC(=O)c2ccc(Oc3cccnc3C#N)c(Br)c2)CC(C)(C)N1 [Compound I-219] | < 5 µM
CC1(C)CC(NC(=O)c2ccc(Oc3ccccc3C#N)c(C3CC3)c2)CC(C)(C)N1 [Compound I-221] | < 5 µM
CC1(C)CC(NC(=O)c2ccc(Oc3cccc4ncccc34)cc2)CC(C)(C)N1 [Compound I-222] | > 80 µM
C#Cc1ccccc1Oc1ccc(C(=O)NC2CC(C)(C)NC(C)(C)C2)cc1 [Compound I-224] | 5 to 20 µM
CC1(C)CC(NC(=O)c2ccc(Oc3ccccc3-c3ccncc3)c(Cl)c2)CC(C)(C)N1 [Compound I-226] | < 5 µM
CC1(C)CC(NC(=O)c2ccc(Oc3ccccc3OCc3ccccn3)cc2)CC(C)(C)N1 [Compound I-231] | 5 to 20 µM

Structure (SMILES) | IC50
CC1(C)CC(NC(=O)c2ccc(Oc3cccc(CN4CCCC4)c3)cc2)CC(C)(C)N1 [Compound I-235] | 5 to 20 µM
CNCc1cccc(Oc2ccc(C(=O)NC3CC(C)(C)NC(C)(C)C3)cc2)c1 [Compound I-236] | 5 to 20 µM
CC1(C)CC(NC(=O)c2ccc(Oc3ccccc3C#N)c(C3CCCC3)c2)CC(C)(C)N1 [Compound I-238] | 5 to 20 µM
CC1(C)CC(NC(=O)c2ccc(Oc3ccccc3C#N)c(COc3ccccc3)c2)CC(C)(C)N1 [Compound I-239] | < 5 µM
CC1(C)CC(NC(=O)c2ccc(CCc3ccccc3)cc2)CC(C)(C)N1 [Compound I-241] | > 80 µM
CC1(C)CC(NC(=O)c2ccc(Oc3nccc4ccccc34)c(Cl)c2)CC(C)(C)N1 [Compound I-242] | 20 to 80 µM
Cc1cc(Oc2ccccc2C#N)ccc1C(=O)NC1CC(C)(C)NC(C)(C)C1 [Compound I-243] | 20 to 80 µM
CC1(C)CC(NC(=O)c2ccc(Oc3ccccc3C#N)cc2F)CC(C)(C)N1 [Compound I-245] | 5 to 20 µM
CC1(C)CC(NC(=O)c2ccc(Oc3ccccc3-c3ccsc3)c(Cl)c2)CC(C)(C)N1 [Compound I-252] | < 5 µM
CC1(C)CC(NC(=O)c2ccc(Oc3ccccc3-c3ncco3)c(Cl)c2)CC(C)(C)N1 [Compound I-253] | < 5 µM
CC1(C)CC(NC(=O)c2ccc(Oc3ccccc3C#N)c(C#N)c2)CC(C)(C)N1 [Compound I-264] | < 5 µM
Cc1cc(C(=O)NC2CC(C)(C)NC(C)(C)C2)ccc1Oc1cccc(C(C)C)c1C#N [Compound I-267] | < 5 µM
CC1(C)CC(NC(=O)c2ccc(Oc3ccccc3)c(OCc3ccccc3)c2)CC(C)(C)N1 [Compound I-269] | 20 to 80 µM
CNCc1ccccc1Oc1ccc(C(=O)NC2CC(C)(C)NC(C)(C)C2)cc1 [Compound I-274] | > 80 µM
CC1(C)CC(NC(=O)c2ccc(Oc3ccccc3-c3nccs3)c(Cl)c2)CC(C)(C)N1 [Compound I-278] | < 5 µM
CC1(C)CC(NC(=O)c2ccc(Oc3ccccc3-c3nn[nH]n3)c(Br)c2)CC(C)(C)N1 [Compound I-282] | > 80 µM

Next, values leading:

IC50 | Structure (SMILES)
> 80 µM | COc1cc(Oc2ccccc2)ccc1C(=O)NC1CC(C)(C)NC(C)(C)C1 [Compound I-204]
5 to 20 µM | CC1(C)CC(NC(=O)c2ccc(Oc3ccccc3OCc3ccncc3)cc2)CC(C)(C)N1 [Compound I-209]
20 to 80 µM | CC1(C)CC(NC(=O)c2ccc(Oc3ccccc3C(C)(C)C)c(Cl)c2)CC(C)(C)N1 [Compound I-210]
< 5 µM | CC1(C)CC(NC(=O)c2ccc(Oc3ncccc3C#N)c(Br)c2)CC(C)(C)N1 [Compound I-220]
5 to 20 µM | CC1(C)CC(NC(=O)c2ccc(Oc3ccccc3-c3ccccn3)c(Cl)c2)CC(C)(C)N1 [Compound I-225]
< 5 µM | CC1(C)CC(NC(=O)c2ccc(Oc3ccccc3-c3ccc(N)nc3)c(Cl)c2)CC(C)(C)N1 [Compound I-227]
5 to 20 µM | CC1(C)CC(NC(=O)c2ccc(Oc3ccccc3C3=CCNCC3)c(Cl)c2)CC(C)(C)N1 [Compound I-229]
5 to 20 µM | CC1(C)CC(NC(=O)c2ccc(Oc3ccccc3C3CCNCC3)c(Cl)c2)CC(C)(C)N1 [Compound I-230]
20 to 80 µM | CC1(C)CC(NC(=O)c2ccc(Oc3ccccc3OCc3cccnc3)cc2)CC(C)(C)N1 [Compound I-232]
> 80 µM | CC1(C)CC(NC(=O)c2ccc(Oc3ccccc3C(=O)N3CCCC3)c(Cl)c2)CC(C)(C)N1 [Compound I-233]
> 80 µM | CC1(C)CC(NC(=O)c2ccc(Oc3cccc(CN4CCOCC4)c3)cc2)CC(C)(C)N1 [Compound I-234]
< 5 µM | CC(C)c1cc(C(=O)NC2CC(C)(C)NC(C)(C)C2)ccc1Oc1ccccc1C#N [Compound I-237]
> 80 µM | CC1(C)CC(NC(=O)c2ccc(COc3ccccc3C#N)cc2)CC(C)(C)N1 [Compound I-240]
20 to 80 µM | CC1(C)CC(NC(=O)c2ccc(Oc3c(Cl)cccc3C#N)cc2)CC(C)(C)N1 [Compound I-244]
20 to 80 µM | CN(C)C(=O)c1ccccc1Oc1ccc(C(=O)NC2CC(C)(C)NC(C)(C)C2)cc1Cl [Compound I-246]
20 to 80 µM | CN(C)Cc1cccc(Oc2ccc(C(=O)NC3CC(C)(C)NC(C)(C)C3)cc2)c1 [Compound I-247]
20 to 80 µM | COCc1ccccc1Oc1ccc(C(=O)NC2CC(C)(C)NC(C)(C)C2)cc1 [Compound I-248]
5 to 20 µM | CC1(C)CC(NC(=O)c2ccc(Oc3ncccc3C#N)c(Cl)c2)CC(C)(C)N1 [Compound I-249]
20 to 80 µM | CC1(C)CC(NC(=O)c2ccc(Oc3ccccc3CN3CCCC3)cc2)CC(C)(C)N1 [Compound I-250]
20 to 80 µM | CC1(C)CC(NC(=O)c2ccc(Oc3cccc(-c4cnc(N)nc4)c3)cc2)CC(C)(C)N1 [Compound I-251]
< 5 µM | CC1(C)CC(NC(=O)c2ccc(Oc3cc(Br)ccc3C#N)c(Cl)c2)CC(C)(C)N1 [Compound I-255]
< 5 µM | Cc1cc(C(=O)NC2CC(C)(C)NC(C)(C)C2)ccc1Oc1cccc(-c2cccnc2)c1C#N [Compound I-261]

IC50 | Structure (SMILES)
< 5 µM | Cc1cc(C(=O)NC2CC(C)(C)NC(C)(C)C2)ccc1Oc1cccc(C2CC2)c1C#N [Compound I-263]
< 5 µM | CCc1cc(C(=O)NC2CC(C)(C)NC(C)(C)C2)ccc1Oc1ccccc1C#N [Compound I-265]
20 to 80 µM | CC1(C)CC(NC(=O)c2ccc(Oc3ccccc3)c(O)c2)CC(C)(C)N1 [Compound I-268]
< 5 µM | CC1(C)CC(NC(=O)c2ccc(Oc3ccccc3C#N)c3ccccc23)CC(C)(C)N1 [Compound I-270]
5 to 20 µM | CC1(C)CC(NC(=O)c2ccc(Oc3ccccc3-c3cccnc3N)c(Cl)c2)CC(C)(C)N1 [Compound I-271]
20 to 80 µM | CC1(C)CC(NC(=O)c2ccc(Oc3ccccc3C(=O)Nc3ccccc3)c(Cl)c2)CC(C)(C)N1 [Compound I-272]
20 to 80 µM | CC1(C)CC(NC(=O)c2ccc(Oc3ccccc3CN)cc2)CC(C)(C)N1 [Compound I-273]
> 80 µM | CN(C)Cc1ccccc1Oc1ccc(C(=O)NC2CC(C)(C)NC(C)(C)C2)cc1 [Compound I-275]
5 to 20 µM | CCN1C(C)(C)CC(NC(=O)c2ccc(Oc3ccccc3C#N)c(Cl)c2)CC1(C)C [Compound I-276]
< 5 µM | CC1(C)CC(NC(=O)c2ccc(Oc3ccccc3-c3cccs3)c(Cl)c2)CC(C)(C)N1 [Compound I-277]
< 5 µM | CC1(C)CC(NC(=O)c2ccc(Oc3ccccc3-c3cncnc3)c(Cl)c2)CC(C)(C)N1 [Compound I-279]
> 80 µM | COc1ccncc1-c1ccccc1Oc1ccc(C(=O)NC2CC(C)(C)NC(C)(C)C2)cc1Cl [Compound I-280]
> 80 µM | CCOC(=O)N1CCC(NC(=O)c2ccc(Oc3ccccc3C#N)c(Cl)c2)CC1 [Compound I-281]
5 to 20 µM | CC1(C)CC(NC(=O)c2ccc(Oc3cccc(CN4CCCCC4)c3C#N)cc2)CC(C)(C)N1 [Compound I-283]
5 to 20 µM | CC1(C)CC(NC(=O)c2ccc(Oc3ccccc3C(N)=O)c(Cl)c2)CC(C)(C)N1 [Compound I-284]
20 to 80 µM | CNC(=O)c1ccccc1Oc1ccc(C(=O)NC2CC(C)(C)NC(C)(C)C2)cc1Cl [Compound I-285]
5 to 20 µM | CC1(C)CC(NC(=O)c2ccc(Oc3ccccc3C(=O)NCc3ccccc3)c(Cl)c2)CC(C)(C)N1 [Compound I-286]
20 to 80 µM | CC(O)c1ccccc1Oc1ccc(C(=O)NC2CC(C)(C)NC(C)(C)C2)cc1 (stereo not drawn) [Compound I-287]
< 5 µM | COc1cncc(-c2ccccc2Oc2ccc(C(=O)NC3CC(C)(C)NC(C)(C)C3)cc2Cl)c1 [Compound I-288]
< 5 µM | CN1C(C)(C)CC(NC(=O)c2ccc(Oc3ccccc3C#N)c(Cl)c2)CC1(C)C [Compound I-289]
> 80 µM | CC(=O)N1C(C)(C)CC(NC(=O)c2ccc(Oc3ccccc3C#N)c(Cl)c2)CC1(C)C [Compound I-290]
